Tests used:
[1] = system: normal NK cells expanded with K562-aAPC; assay: percent inhibition of viability; higher = more inhibition; conditions: 72 h, IL-2 2.5 ng/mL
Protocol: (§1)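 Drug sensitivity and resistance testing on K562-aAPC-expanded normal NK cells: 5 concentrations (10-fold steps over a 10,000-fold range), 72 h at 37 °C, viability by CellTiter-Glo normalised to DMSO and benzethonium chloride controls; DSS from the fitted curve.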

[2] = system: DERL-7 (IL-2 2.5 ng/mL); assay: as above; conditions: 72 h
[3] = system: IMC-1 (IL-2 20 ng/mL); assay: as above; conditions: 72 h
[4] = system: KAI3 (IL-2 2.5 ng/mL); assay: as above; conditions: 72 h
[5] = system: KHYG-1 (IL-2 2.5 ng/mL); assay: as above; conditions: 72 h
[6] = system: NK-92 (IL-2 2.5 ng/mL); assay: as above; conditions: 72 h
[7] = system: NK-YS (IL-2 2.5 ng/mL); assay: as above; conditions: 72 h
[8] = system: NKL (IL-2 2.5 ng/mL); assay: as above; conditions: 72 h
[9] = system: SNK-6 (IL-2 2.5 ng/mL); assay: as above; conditions: 72 h
[10] = system: YT (IL-2 2.5 ng/mL); assay: as above; conditions: 72 h
[11] = system: normal primary NK cells, pool 1 (3 donors) (IL-2 2.5 ng/mL); assay: as above; conditions: 72 h
[12] = system: normal primary NK cells, pool 1 (3 donors), resting (IL-2 0 ng/mL); assay: as above; conditions: 72 h
[13] = system: normal primary NK cells, pool 2 (3 donors) (IL-2 2.5 ng/mL); assay: as above; conditions: 72 h
[14] = system: normal primary NK cells, pool 3 (3 donors) (IL-2 2.5 ng/mL); assay: as above; conditions: 72 h
[15] = system: normal NK cells expanded with K562-aAPC; assay: drug sensitivity score (DSS) (DSS units); higher = more sensitive; extreme values may be limits of the assay; conditions: 72 h; IL-2 2.5 ng/mL
Protocol: as §1

[16] = system: DERL-7 (IL-2 2.5 ng/mL); assay: as above; conditions: 72 h
[17] = system: IMC-1 (IL-2 20 ng/mL); assay: as above; conditions: 72 h
[18] = system: KAI3 (IL-2 2.5 ng/mL); assay: as above; conditions: 72 h
[19] = system: KHYG-1 (IL-2 2.5 ng/mL); assay: as above; conditions: 72 h
[20] = system: NK-92 (IL-2 2.5 ng/mL); assay: as above; conditions: 72 h
[21] = system: NK-YS (IL-2 2.5 ng/mL); assay: as above; conditions: 72 h
[22] = system: NKL (IL-2 2.5 ng/mL); assay: as above; conditions: 72 h
[23] = system: SNK-6 (IL-2 2.5 ng/mL); assay: as above; conditions: 72 h
[24] = system: YT (IL-2 2.5 ng/mL); assay: as above; conditions: 72 h
[25] = system: normal primary NK cells, pool 1 (3 donors) (IL-2 2.5 ng/mL); assay: as above; conditions: 72 h
[26] = system: normal primary NK cells, pool 1 (3 donors), resting (IL-2 0 ng/mL); assay: as above; conditions: 72 h
[27] = system: normal primary NK cells, pool 2 (3 donors) (IL-2 2.5 ng/mL); assay: as above; conditions: 72 h
[28] = system: normal primary NK cells, pool 3 (3 donors) (IL-2 2.5 ng/mL); assay: as above; conditions: 72 h

CN[C@@H](C)C(=O)N[C@H](C(=O)N1CCC[C@H]1c1nc(C(=O)c2ccc(F)cc2)cs1)C1CCCCC1 [LCL161] (max concentration tested 25000 nM)
percent inhibition of viability [%]
Conditions | 2.5 nM | 25 nM | 250 nM | 2500 nM | 25000 nM
[1] | 3.9 | 9.45 | 17.1 | 42 | 71.6
[2] | 3.1 | 13 | 11.3 | 36.6 | 64.2
[3] | -0.09 | 4.35 | 9.97 | 0.82 | 31.3
[4] | -3.88 | -6.89 | -0.05 | 26.9 | 67.2
[5] | -3.69 | -2.27 | 43.7 | 87.9 | 86.8
[6] | -9.41 | 4.44 | 14.3 | 35.9 | 87.5
[7] | -6.78 | -9.82 | -8.28 | -8.9 | 20.8
[8] | -0.58 | 12.2 | 1.43 | 5.86 | 46.8
[9] | 9.58 | 4.06 | -3.23 | -1.7 | 42.3
[10] | 4.24 | 0.05 | 5.12 | 15.8 | 49.9
[11] | -2.53 | -6.03 | 25.8 | 58 | 91
[12] | -36.7 | -17.7 | -2.19 | 43.8 | 88.3
[13] | -10.3 | 4.59 | 24.6 | 55.9 | 80.5
[14] | -5.71 | 1.98 | 19.5 | 51.1 | 75.2

Conditions | drug sensitivity score
[15] | 10.4
[16] | 8.62
[17] | 1.5
[18] | 7.35
[19] | 21.5
[20] | 9.07
[21] | 0.39
[22] | 3.42
[23] | 1.99
[24] | 4.58
[25] | 14
[26] | 10.4
[27] | 13.6
[28] | 12

C[C@]12O[C@H](C[C@]1(O)CO)n1c3ccccc3c3c4c(c5c6ccccc6n2c5c31)CNC4=O [Lestaurtinib] (max concentration tested 1000 nM)
percent inhibition of viability [%]
Conditions | 0.1 nM | 1 nM | 10 nM | 100 nM | 1000 nM
[1] | 0.88 | 0.03 | 29 | 96.5 | 95.9
[2] | 6.54 | 3.47 | 17.9 | 85.4 | 99.6
[3] | -6.9 | -5.94 | -22.2 | 51.8 | 98.9
[4] | -0.38 | 3.13 | 35.9 | 86.4 | 76.4
[5] | -2.95 | 1.85 | 23.3 | 99.3 | 98.2
[6] | -0.14 | -6.28 | 7.06 | 76.2 | 82.7
[7] | -0.02 | 0.67 | 6.21 | 48.1 | 87.8
[8] | -13.1 | -12.9 | 13.3 | 71.2 | 80.6
[9] | 0.62 | 7.99 | 4.23 | 64.6 | 73.7
[10] | -2.5 | -0.06 | 3.18 | 55.1 | 91.6
[11] | -8.02 | -1.5 | 10.2 | 76 | 75.2
[12] | 4.88 | -1.99 | -2.95 | 26 | 18.6
[13] | -7.68 | 3.05 | 13.7 | 69.3 | 73
[14] | -8.42 | -14 | -3.13 | 65.2 | 72.3

Conditions | drug sensitivity score
[15] | 21.6
[16] | 17.9
[17] | 11.8
[18] | 20.1
[19] | 21.5
[20] | 15
[21] | 10.6
[22] | 14.8
[23] | 12.5
[24] | 11.7
[25] | 15.6
[26] | 3.91
[27] | 14.7
[28] | 11.9

Nc1nc(OCc2cc(Br)cs2)c2[nH]cnc2n1 [Lomeguatrib] (max concentration tested 10000 nM)
percent inhibition of viability [%]
Conditions | 1 nM | 10 nM | 100 nM | 1000 nM | 10000 nM
[1] | -6.1 | -4.35 | -4.12 | -3.84 | 21
[2] | 4.42 | 1.17 | 2.11 | 0.21 | 29.9
[3] | -11.5 | -6.71 | -6.4 | -6.2 | 8.26
[4] | 3.07 | -2.1 | -3 | 0.64 | 24.2
[5] | 1.34 | -3.62 | -7.2 | -3.96 | 7.46
[6] | -11.6 | -17.5 | -5.85 | -7.63 | 3.77
[7] | 1.57 | -2.53 | -4.74 | -3.26 | 12.7
[8] | -4.89 | -6.45 | -9.35 | 8.52 | 51.3
[9] | -7.32 | 6.29 | -7.89 | 4 | 9.3
[10] | -3.67 | -6.22 | -3.85 | 0.11 | 14.3
[11] | -4.41 | 4.97 | 9.83 | 16 | 26.1
[12] | 12.8 | 8.93 | 18.4 | 19.5 | 20.8
[13] | -5.64 | -7.78 | 3.47 | 3.5 | 14.1
[14] | 0.89 | -1.05 | 7.15 | 4.29 | 9.2

Conditions | drug sensitivity score
[15] | 0.49
[16] | 1.33
[17] | 0
[18] | 0.96
[19] | 0
[20] | 0
[21] | 0.03
[22] | 4.14
[23] | 0
[24] | 0.19
[25] | 2.96
[26] | 0
[27] | 0.34
[28] | 0

CC[C@H](C)C(=O)O[C@H]1C[C@@H](C)C=C2C=C[C@H](C)[C@H](CC[C@@H]3C[C@@H](O)CC(=O)O3)[C@H]21 [Lovastatin] (max concentration tested 10000 nM)
percent inhibition of viability [%]
Conditions | 1 nM | 10 nM | 100 nM | 1000 nM | 10000 nM
[1] | 0.56 | -5.1 | -9.52 | -6.29 | -8.93
[2] | 2.67 | -1.74 | 3.23 | -2.63 | 7.15
[3] | 0.36 | -4.93 | -3.87 | -8.19 | 5.39
[4] | 0.53 | 3.49 | -3.97 | 0.77 | 14
[5] | 0.32 | -1.28 | -1.4 | 5.79 | 9.85
[6] | -12 | -4.31 | 2.92 | -2.72 | 4.38
[7] | -0.66 | -1.57 | -0.61 | 9.14 | 57.5
[8] | -8.92 | -7.04 | -16.3 | -3.47 | 50.5
[9] | 9.2 | 3.13 | 18.8 | 3.99 | -5.4
[10] | 1.08 | 0.01 | -2.08 | 1.47 | 15
[11] | -9.05 | -11.9 | -5.92 | 4.69 | 0.82
[12] | -2.63 | -14.8 | -15 | 10.9 | 16
[13] | -9.06 | -2.92 | -2.71 | -5.88 | -6.36
[14] | -7.92 | -10.5 | -6.75 | -10.6 | -16

Conditions | drug sensitivity score
[15] | 0
[16] | 0
[17] | 0
[18] | 0.22
[19] | 0
[20] | 0
[21] | 4.64
[22] | 2.39
[23] | 0
[24] | 0.36
[25] | 0
[26] | 1.12
[27] | 0
[28] | 0

C=CCn1c(=O)c2cnc(Nc3ccc(N4CCN(C)CC4)cc3)nc2n1-c1cccc(C(C)(C)O)n1 [MK1775] (max concentration tested 10000 nM)
percent inhibition of viability [%]
Conditions | 1 nM | 10 nM | 100 nM | 1000 nM | 10000 nM
[1] | -4.38 | -1.43 | 28.4 | 50.9 | 65.7
[2] | 0.66 | 0.03 | 17.1 | 97.5 | 92.2
[3] | -5.81 | -5.29 | -4.21 | 96.3 | 99
[4] | -0.83 | 7.57 | 45.7 | 91.1 | 90.4
[5] | -2.16 | 1.16 | 78.7 | 102 | 98.7
[6] | 4.45 | -1.85 | 53.5 | 98.9 | 97.4
[7] | -5.73 | -7.13 | 10.9 | 92.7 | 94.9
[8] | -16 | 4.83 | 68.4 | 94.3 | 64.4
[9] | -5.66 | -15.9 | 26.5 | 92.5 | 96.4
[10] | 1.53 | 1.29 | 16.2 | 98.3 | 98.1
[11] | -14.7 | -12.2 | -5.81 | 9.3 | 42.5
[12] | -1.92 | -3.22 | 7.91 | 4.91 | -27.9
[13] | -15.1 | -7.74 | -2.34 | 4.19 | 34.3
[14] | -17.6 | -4.31 | -8.03 | 5.21 | 17.9

Conditions | drug sensitivity score
[15] | 13
[16] | 20.4
[17] | 17.1
[18] | 21.8
[19] | 27.1
[20] | 24.3
[21] | 18.8
[22] | 25.5
[23] | 21
[24] | 20.4
[25] | 3.64
[26] | 0
[27] | 2.29
[28] | 1.01

Reference: the supplement of paper PMC5908809
